The source of these data is ChEMBL document CHEMBL1137999, “A novel series of p38 MAP kinase inhibitors for the potential treatment of rheumatoid arthritis” (Bioorg Med Chem Lett, 2004).

One series in a line: cells. To be noted: Homo sapiens.
Series [1] concerns the target Mitogen-activated protein kinase 14 (Homo sapiens, UniProt Q16539).
Series [2] is described as follows: Area under plasma-time concentration curve when administered at 1 mg/kg dose. To be noted: rat. More on the design: dose 1 mg/kg. It counts as ADME, organism-based.
Series [3] is filed under the species Mus musculus. In words: animal or person. It counts as functional.
Series [4] is filed under the species Mus musculus. In words: animal or person. It counts as functional. The source holds these as a separate data set.
The species entered for series [5] is Mus musculus. In words: animal or person. It counts as functional. The source holds these as a separate data set.
For a further series, the species on record is Homo sapiens. Kind of series: tissue or blood.
The nature of series [6]: Solubility was determined. It counts as physicochemical.
The nature of series [7]: Oral bioavailability at 3 mg/kg. It counts as ADME, organism-based. To be noted: rat, in vivo, read-out: Bioavailabiility.
Series [8] can be described thus: Protein binding was determined in human. It counts as ADME.
The nature of series [9]: Volume distribution after iv administration of 1 mg/kg. It counts as ADME, organism-based. On the set-up: dose 1 mg/kg, route intravenous. The settings on record: rat, in vivo, read-out: Distribution.
A short description of series [10]: Log D value at pH 7.4. It counts as physicochemical. The settings on record: buffer.

pIC50: −log10 of the molar value. Converted amounts (≈) assume the structure as drawn. Some results are limits rather than exact numbers.

Sequence of Mitogen-activated protein kinase 14 (Q16539 whole entry): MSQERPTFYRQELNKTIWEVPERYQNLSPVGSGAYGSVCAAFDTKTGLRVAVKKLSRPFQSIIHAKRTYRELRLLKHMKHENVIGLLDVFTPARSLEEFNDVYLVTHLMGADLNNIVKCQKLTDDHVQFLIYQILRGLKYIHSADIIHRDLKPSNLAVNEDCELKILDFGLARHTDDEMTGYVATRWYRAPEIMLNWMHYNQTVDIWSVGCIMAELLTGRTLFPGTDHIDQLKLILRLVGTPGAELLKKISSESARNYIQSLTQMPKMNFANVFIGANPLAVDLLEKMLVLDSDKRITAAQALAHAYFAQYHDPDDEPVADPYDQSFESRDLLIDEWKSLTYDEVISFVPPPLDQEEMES

On to `COc1ccc(C(=O)Nc2cc(NC(=O)c3cccc(N(C)C)c3)ccc2C)cc1OC`, for which the pIC50 (as a rule, the IC50 on a negative log10 scale, so that one unit is a factor of ten) is 5.19 in “cells” and 6.74 in series [1].
Take `Cc1ccc(NC(=O)c2cccc(N3CCOCC3)c2)cc1NC(=O)c1ccc(OCc2cscn2)cc1`: the AUC – broadly, the area under the concentration-time curve, a measure of exposure – in [2] is less than 0.12 µM·h. The inhibition in vivo (in general, the relative decrease from the control value, in per cent) at 3 mg/kg in the series filed under Mus musculus [3] was 28%. The compound also displayed an inhibition in vivo at 10 mg/kg in the series filed under Mus musculus [4] of 44%. This compound also returned an inhibition in vivo at 30 mg/kg in the series listed under Mus musculus [5] of 56%.
Regarding `COCCOc1ccc(C(=O)Nc2cc(NC(=O)c3cccc(N(C)C)c3)ccc2C)cc1`, the figures for the pIC50 (in the series “cells”; in [1]) were 5.47 and 6.57, respectively.
`Cc1ccc(NC(=O)c2cccc(N3CCOCC3)c2)cc1NC(=O)c1ccc(OCc2ccccn2)cc1` gave an AUC in series [2] of 1.38 µM·h. Also, testing at 30 mg/kg in the series listed under Mus musculus [5] (dose 30 mg/kg) gave an inhibition in vivo of 59%.
In the case of `COc1ccc(C(=O)Nc2cc(NC(=O)c3cccc(N(C)C)c3)ccc2Br)cc1OC`, the pIC50 in the series “cells” was 5.02; in series [1], 6.47.
In series [2], `Cc1nc(COc2ccc(C(=O)Nc3cc(NC(=O)c4cccc(N5CCOCC5)c4)ccc3C)cc2)cs1` displayed an AUC of 2.03 µM·h. Also, the results for the negative logarithm of the IC50 (pIC50) (in the series listed under Homo sapiens; in [1]) were 4.84 and 7.70, respectively. In addition, the inhibition in vivo at 3 mg/kg in the series listed under Mus musculus [3] (dose 3 mg/kg) was determined as 33%. The inhibition in vivo at 10 mg/kg in the series listed under Mus musculus [4] (dose 10 mg/kg) came to 44%. The compound further returned an inhibition in vivo at 30 mg/kg in the series listed under Mus musculus [5] (dose 30 mg/kg) of 71%.
`Cc1nc(COc2ccc(C(=O)Nc3cc(NC(=O)c4cc(F)cc(N5CCOCC5)c4)ccc3C)cc2)cs1` showed an AUC in series [2] of 0.73 µM·h. Also, the pIC50 was 5.55 in the series listed under Homo sapiens and 7.05 in series [1]. In the series listed under Mus musculus [3] (dose 3 mg/kg), 3 mg/kg produced 0% inhibition in vivo. In addition, in the series filed under Mus musculus [4] (dose 10 mg/kg), the inhibition in vivo at 10 mg/kg was found to be 27%. Moreover, in the series listed under Mus musculus [5] (dose 30 mg/kg), the inhibition in vivo at 30 mg/kg was 35%.
As for `CCOc1ccc(C(=O)Nc2cc(NC(=O)c3cccc(N(C)C)c3)ccc2C)cc1`, the figures for the pIC50 (in “cells”; in series [1]) were 5.15 and 7.22, respectively.
For `Cc1ccc(NC(=O)c2cc(N3CCOCC3)cc(C(F)(F)F)c2)cc1NC(=O)c1ccc(OCc2ccccn2)cc1`, the AUC in series [2] turned out to be 0.04 µM·h. For the same compound, the pIC50 in the series listed under Homo sapiens was 4.99; in [1], 7.70. Further, the inhibition in vivo at 10 mg/kg in the series filed under Mus musculus [4] (dose 10 mg/kg) came out at 4%. This compound also gave an inhibition in vivo at 30 mg/kg in the series listed under Mus musculus [5] (dose 30 mg/kg) of 55%.
`COc1ccc(C(=O)N(C)c2cc(NC(=O)c3cccc(N(C)C)c3)ccc2C)cc1OC`: the pIC50 in series [1] was less than 4.70.
`Cc1ccc(NC(=O)c2ccnc(N3CCOCC3)c2)cc1NC(=O)c1ccc(OCc2ccccn2)cc1`: in [6], the solubility (usually how much of the substance goes into solution per volume) was less than 1 µM. Moreover, in series [7], the bioavailability was 46%. For the same compound, the pIC50 in the series filed under Homo sapiens is 5.55; in series [1], 8.00. For the same compound, the Binding in series [8] was found to be 99.89%. Besides, the Vd in series [9] turned out to be 1.6 L/kg.
As for `Cc1ccc(NC(=O)c2cc(F)cc(N3CCOCC3)c2)cc1NC(=O)c1ccc(OCc2cscn2)cc1`, the exposure (AUC) in series [2] was determined as 0.71 µM·h. The pIC50 in the series listed under Homo sapiens is 5.60; in series [1], 8.00. Moreover, at 10 mg/kg the inhibition in vivo in the series listed under Mus musculus [4] was 37%. In addition, the inhibition in vivo at 30 mg/kg in the series listed under Mus musculus [5] is 81%.
Turning to `Cc1ccc(NC(=O)c2cccc(N3CCOCC3)c2)cc1NC(=O)c1ccc(OCc2cccnc2)cc1`, the pIC50 is 4.83 in the series listed under Homo sapiens and 7.05 in series [1].
In series [2], `Cc1ccc(NC(=O)c2cccc(N3CCOCC3)c2)cc1NC(=O)c1ccc(OCc2ccncc2)cc1` displayed an AUC of 0.13 µM·h. Further, the pIC50 in the series listed under Homo sapiens was 5.48; in series [1], 7.70. The compound also registered an inhibition in vivo at 3 mg/kg in the series filed under Mus musculus [3] (dose 3 mg/kg) of 14%. This compound also had an inhibition in vivo at 10 mg/kg in the series filed under Mus musculus [4] (dose 10 mg/kg) of 43%. Besides, the inhibition in vivo at 30 mg/kg in the series filed under Mus musculus [5] (dose 30 mg/kg) worked out at 75%.
In series [1], `COc1ccc(C(=O)Nc2ccc(C)c(NC(=O)c3cccc(N(C)C)c3)c2)cc1OC` showed a pIC50 of less than 4.70.
For `C[S+]([O-])c1ccc(-c2nc(-c3ccc(F)cc3)c(-c3ccncc3)[nH]2)cc1` (centres undefined) [SB-203580], 3 mg/kg produced 0% inhibition in vivo in the series filed under Mus musculus [3]. Besides, the inhibition in vivo at 10 mg/kg in the series filed under Mus musculus [4] is 47%. The inhibition in vivo at 30 mg/kg in the series filed under Mus musculus [5] turned out to be 50%.
In the case of `Cc1ccc(NC(=O)c2cccc(N(C)C)c2)cc1NC(=O)c1ccc(O)cc1`, in series [6], the solubility is 10 µM (≈ 3.89 µg/mL). Moreover, the pIC50 in the series “cells” is less than 4.30; in series [1] it was 6.74. This compound displayed a Binding in series [8] of 99.7%. In addition, the logD (commonly the decadic logarithm of the distribution of all forms, ionised or not, between an organic phase and buffer at a given pH) in series [10] is 2.7.
In the case of `COc1ccc(C(=O)Nc2cc(NC(=O)c3cccc(N(C)C)c3)ccc2C)cc1`, the pIC50 was less than 4.30 in the series “cells” and 6.74 in [1].
The matching figures for `COc1cc(C(=O)Nc2cc(NC(=O)c3cccc(N(C)C)c3)ccc2C)cc(OC)c1OC`: 5.41 and 6.64.
In [2], `Cc1ccc(NC(=O)c2cc(F)cc(N3CCOCC3)c2)cc1NC(=O)c1ccc(OCc2ccncc2)cc1` registered an AUC of less than 0.02 µM·h. The negative logarithm of the IC50 (pIC50) is 5.47 in the series filed under Homo sapiens and 8.00 in series [1]. In addition, at 10 mg/kg the inhibition in vivo in the series listed under Mus musculus [4] (dose 10 mg/kg) was 24%. In the series listed under Mus musculus [5] (dose 30 mg/kg), the inhibition in vivo at 30 mg/kg came to 40%.
For `COc1ccc(C(=O)Nc2cc(NC(=O)c3cccc(N(C)C)c3)ccc2C)c(OC)c1`, the pIC50 in “cells” is less than 4.30; in series [1] it was 7.00.
`Cc1ccc(NC(=O)c2cc(F)cc(N3CCOCC3)c2)cc1NC(=O)c1ccc(OCc2ccccn2)cc1` returned an AUC in series [2] of 0.13 µM·h. Besides, the pIC50 in the series filed under Homo sapiens was 4.95; in series [1] it was 7.22. Besides, 30 mg/kg produced 43% inhibition in vivo in the series listed under Mus musculus [5] (dose 30 mg/kg).
With `COc1ccc(C(=O)Nc2cc(NC(=O)c3cccc(N(C)C)c3)ccc2Cl)cc1OC`, the pIC50 is 5.19 in “cells” and 6.66 in [1].
On to `Cc1ccc(NC(=O)c2cccc(N3CCOCC3)c2)cc1NC(=O)c1ccc(OCc2ccccc2)cc1`, for which the pIC50 is 4.40 in the series listed under Homo sapiens and 7.52 in series [1].
As for `COc1ccc(C(=O)Nc2cccc(NC(=O)c3cccc(N(C)C)c3)c2)cc1OC`, in series [1], the pIC50 was less than 4.70.
In series [2], `Cc1ccc(NC(=O)c2cc(F)cc(N3CCCC3)c2)cc1NC(=O)c1ccc(OCc2ccccn2)cc1` showed an AUC of 0.07 µM·h. Besides, at 10 mg/kg the inhibition in vivo in the series filed under Mus musculus [4] was 3%. At 30 mg/kg the inhibition in vivo in the series listed under Mus musculus [5] was 7%.
In the case of `CCOCCOc1ccc(C(=O)Nc2cc(NC(=O)c3cccc(N(C)C)c3)ccc2C)cc1`, the pIC50 in “cells” was 5.02; in series [1], 6.51.
The matching figures for `COc1ccc(C(=O)Nc2cc(NC(=O)c3cccc(N(C)C)c3)ccc2F)cc1OC`: 4.66 and 5.72.
The matching figures for `CCOc1ccc(C(=O)Nc2cc(NC(=O)c3cccc(N(C)C)c3)ccc2C)cc1OCC`: 5.35 and 7.30.
